The text below walks through data of publication PMC12631873 (Advanced Science, 2025).

One data set relates to rat chondrocytes. Kind of data set: CCK-8 cell viability assay on rat chondrocytes. It counts as cell-based. The settings on record: n = 4 wells. As to the method: The cultures were maintained under standard conditions of 37 °C and 5% CO2. Chondrocytes collected from the articular cartilage of Sprague‐Dawley (SD) rats (purchased from Jennio Biotech, JNO‐720) were cultured in DMEM medium (Precell, PM150210). Human venous endothelial cells (HUVECs, purchased from iCell, iCell‐h110) were cultured in HUVEC medium (iCell, iCell‐h110‐001b). Both cells were seeded in 96‐well plates at a density of 5000 cells per well. The medium was supplemented with 10% fetal bovine serum (FBS, Precell, 164210) and penicillin‐streptomycin (1:100 diluted from a 100× stock solution, ThermoFisher, 15140122) to support cell growth and prevent bacterial contamination. […] Cell viability was assessed using the CCK‐8 assay kit (GLPBIO, GK10001−5) according to the manufacturer's instructions. After further incubation for 4 h, the optical density (OD) of the CCK‐8 solution was measured at 450 nm using a microplate reader (PerkinElmer, EnVision). […] The fluorescence images were obtained using an EVOS M7000 imaging system (Light cubes: GFP and RFP, Objective: 10×). A microscopic image was taken from the live (Calcein AM) staining of each well, and the total fluorescence signals were quantified for each image. The mean fluorescence level of each probe's group was normalized to the blank control group to estimate the relative cell viability. […]
For orientation: Tetrazolium assays rely on reduction of a dye to a coloured formazan, in cell work by metabolically active cells.

A short description of data set [1]: Routine (whole) blood tests after repeated dosing. It counts as in vivo, mouse. The following applies: C57BL/6J mice, 3 weekly i.v. doses of 2 nmol over 14 days, n = 5. As to the method:
Whole blood tests: Each C57BL/6J mouse (6–8 weeks old) was intravenously injected with 100 µL of PBS buffer or with each peptide or peptoid probe (2 nmol in 100 µL 1× PBS buffer per mouse) on days 0, 7, and 14. The mice were sacrificed on day 15, 24 h after the final injection. The heart, liver, spleen, lungs, and kidneys were collected from each mouse and processed into formalin‐fixed paraffin‐embedded sections for histological evaluation with H&E staining. Whole blood was collected. Both H&E and blood sample analyses were performed by Wuhan Servicebio.

The subject of another data set is cartilage. Kind of data set: In vivo and ex vivo fluorescence imaging of cartilage uptake and retention in nude mice. Set-up: species or system mouse. The source says:
All procedures for mouse maintenance and experiments strictly followed the policy of the Experimental Animal Ethics Committee of the Fifth Affiliated Hospital of Sun Yat‐sen University (protocol numbers: 00361, 00436). Balb/c nu mice (male, 10‐18 weeks old) were used for the general in vivo imaging experiments (Figure 3c–f; Figures S10–S14, Supporting Information). For Figure 3g,h and Figure S16 (Supporting Information), neonatal Balb/c mice (7 days old) were used. Female Balb/c mice (74 weeks old versus 12 weeks old) were used in the aged joint imaging experiment reported in Figure 4a–c and Figure S17 (Supporting Information). The RA model was made using female Balb/c mice (6‐8 weeks old) by intraperitoneal injection of an anti‐collagen antibody cocktail (1.5 mg per mouse; Chondrex, 53100) followed by selective subcutaneous injection of lipopolysaccharide (LPS, 12.5 µg per mouse, Chondrex, 53100) into the left hind paw three days later.^[ [30] ^] C57BL/6J mice (male, 6–8 weeks old) were used for the biocompatibility tests (Figures S23–S25, Supporting Information).
Typically, the fluorescence peptides or peptoids were prepared at a dose of 1 nmol (10 µM in 100 µL of 1× PBS buffer) and injected into the tail vein of each mouse 2 h prior to fluorescence imaging with an IVIS Spectrum imager (PerkinElmer Lumina III). For Figure 4, Figures S17 and S18 (Supporting Information) (joint aging and RA) and Figure S27 (Supporting Information), 2 nmol of Cy5‐(NlysO)7 (20 µM in 100 µL of 1× PBS buffer) were i.v. administered to each mouse. For 1‐week‐old neonatal mice, 1 nmol of Cy5‐(NlysO)7 (20 µM in 50 µL of 1× PBS buffer) was intravenously injected into each mouse. All in vivo imaging was performed 2 h post probe injection with the IVIS Spectrum imager (PerkinElmer, fluorescence: ex/em: 620/670 nm, exposure: 1 s, bing: 4, F/Stop: 2; field of view: A/B/C/Z). Mice were anesthesia with 3% isoflurane (RWD, R510‐22‐10) during image acquisition. Hair in the knee areas was removed before fluorescence imaging for mice in Figure 4a and Figure S17 (Supporting Information). The mice were euthanized following the final image acquisition and occasionally imaged again after skin and organ removal. Next, the airways, ankles, ears, paws, knees, tails, spines, and chest ribs were collected, imaged, and saved for subsequent histology analysis. All acquired fluorescence images were analyzed using the Living Image software (PerkinElmer). The fluorescence signal from each specimen was measured by quantifying the average radiation efficiency within the selected oval‐shaped regions‐of‐interest.
For the cartilage retention experiments (Figures S11 and S12, Supporting Information), Cy5‐(NlysO)7 (10 µM in 100 µL of 1× PBS buffer) was administered via tail vein to four male Balb/c nu mice (10 weeks old) at 2, 24, 48, and 96 h respectively, prior to fluorescence imaging using an IVIS Spectrum imaging system (ex/em: 620/670 nm, exposure: 1 s, bing: 4, F/Stop: 2). Following euthanasia, their cartilaginous tissues were harvested and imaged. The fluorescence images were analyzed and quantified as described above.

Square brackets hold non-standard residues; d marks the D form. Peptide text beside a SMILES is read from it. * marks the point of attachment. X1 = CN1/C(=C/C=C/C=C/C2=[N+](CCCCCC(=O)*)c3ccc(S(=O)(=O)[O-])cc3C2(C)C)C(C)(C)c2cc(S(=O)(=O)O)ccc21; Hyp = O=C(O)[C@@H]1C[C@@H](O)CN1; Nlys = NCCCCNCC(=O)O; Ahx = NCCCCCC(=O)O

As for `CN1/C(=C/C=C/C=C/C2=[N+](CCCCCC(=O)NCCCCCC(=O)N(CCCCN)CC(=O)N3C[C@H](O)C[C@H]3C(=O)N(CCCCN)CC(=O)N3C[C@H](O)C[C@H]3C(=O)N(CCCCN)CC(=O)N3C[C@H](O)C[C@H]3C(=O)N(CCCCN)CC(=O)N3C[C@H](O)C[C@H]3C(=O)N(CCCCN)CC(=O)N3C[C@H](O)C[C@H]3C(=O)N(CCCCN)CC(=O)N3C[C@H](O)C[C@H]3C(=O)N(CCCCN)CC(=O)N3C[C@H](O)C[C@H]3C(N)=O)c3ccc(S(=O)(=O)[O-])cc3C2(C)C)C(C)(C)c2cc(S(=O)(=O)O)ccc21` [Cy5‐(NlysO)7] ({X1-Ahx}-[Nlys][Hyp][Nlys][Hyp][Nlys][Hyp][Nlys][Hyp][Nlys][Hyp][Nlys][Hyp][Nlys][Hyp]-NH2), in the data set on rat chondrocytes (tested concentrations 0-40 µM, 72 h), the “cytotoxicity to chondrocytes over 72 h (CCK-8)” value is reported as “did not show cytotoxicity”. For the same compound, the “routine blood analyses vs PBS control group” value in data set [1] is “None of the measurements”. The “in vivo retention in joints and ribs compared to peptide sequences Cy5-(GKO)7 and Cy5-R8” value with cartilage (1 nmol i.v., 0-96 h) was “stronger retention in the joints and ribs in vivo”. Moreover, in the data set on cartilage (1 nmol i.v., imaged at 2, 24, 48, 96 h), the “fluorescence in cartilage-rich tissues (knee joints, ribs) 2-96 h post-injection” value was “at 48 h but not 96 h”.
Consider `CN1/C(=C/C=C/C=C/C2=[N+](CCCCCC(=O)NCCCCCC(=O)N[C@@H](CCCNC(=N)N)C(=O)N[C@@H](CCCNC(=N)N)C(=O)N[C@@H](CCCNC(=N)N)C(=O)N[C@@H](CCCNC(=N)N)C(=O)N[C@@H](CCCNC(=N)N)C(=O)N[C@@H](CCCNC(=N)N)C(=O)N[C@@H](CCCNC(=N)N)C(=O)N[C@@H](CCCNC(=N)N)C(N)=O)c3ccc(S(=O)(=O)[O-])cc3C2(C)C)C(C)(C)c2cc(S(=O)(=O)O)ccc21` [Cy5‐R8, reference compound], for which, in the data set on rat chondrocytes (0-40 µM, 24 h), the “cytotoxicity to cultured chondrocytes (CCK8), in words” value is “significant cytotoxicity”. In addition, the “time post-injection that in vivo signals in knee joints and thoracic costal cartilage remained detectable” value in the data set with cartilage (1 nmol tail-vein injection, monitored over 96 h) is on record as “difficult to find after 2 h post‐injection”.
